In patent publication US12077503B2, “Substituted cyclic amides and their use as herbicides” (FMC CORPORATION, priority 2015, dated 2024):

Tests used:
Type in all cases: in vivo
[1] = system: barnyardgrass (Echinochloa crus-galli); assay: Test G Pre-Emergence Protocol; conditions: Echinochloa crus-galli, pre-emergence, 312 h, evaluated after 13 days
How it was run: (§1)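 Test compound in 0.5% Tween 20 acetone/water (50:50) was applied at three rates (15.625, 62.5, 250 g/ha) to soil sown one day earlier. After 13 days plants were scored for injury, where 0 means unaffected and 100 means completely damaged.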

[2] = system: corn (Zea mays); assay: Test G Pre-Emergence Protocol; conditions: Zea mays, pre-emergence, 312 h, evaluated after 13 days
How it was run: as §1

[3] = system: giant foxtail (Setaria faberi); assay: Test G Pre-Emergence Protocol; conditions: Setaria faberi, pre-emergence, 312 h, evaluated after 13 days
How it was run: as §1

[4] = system: ivy-leaved morning glory (Ipomoea hederacea); assay: Test G Pre-Emergence Protocol; conditions: Ipomoea, pre-emergence, 312 h, evaluated after 13 days
How it was run: as §1

[5] = system: redroot pigweed (Amaranthus retroflexus); assay: Test G Pre-Emergence Protocol; conditions: Amaranthus retroflexus, pre-emergence, 312 h, evaluated after 13 days
How it was run: as §1

[6] = system: velvetleaf (Abutilon theophrasti); assay: Test G Pre-Emergence Protocol; conditions: Abutilon theophrasti, pre-emergence, 312 h, evaluated after 13 days
How it was run: as §1

[7] = system: barnyardgrass (Echinochloa crus-galli); assay: Test G Post-Emergence Protocol; conditions: Echinochloa crus-galli, post-emergence, 312 h
How it was run: (§2)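 Sow in soil; grow 8 d (24/16 °C, 14 h light, 65% humidity); spray 15.625/62.5/250 g/ha in acetone:water 50:50 + 0.5% Tween 20; grow on, water twice daily; score damage 0–100 at 13 d.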

[8] = system: corn (Zea mays); assay: Test G Post-Emergence Protocol; conditions: Zea mays, post-emergence, 312 h
How it was run: as §2

[9] = system: giant foxtail (Setaria faberi); assay: Test G Post-Emergence Protocol; conditions: Setaria faberi, post-emergence, 312 h
How it was run: as §2

[10] = system: ivy-leaved morning glory (Ipomoea hederacea); assay: Test G Post-Emergence Protocol; conditions: Ipomoea, post-emergence, 312 h
How it was run: as §2

[11] = system: redroot pigweed (Amaranthus retroflexus); assay: Test G Post-Emergence Protocol; conditions: Amaranthus retroflexus, post-emergence, 312 h
How it was run: as §2

[12] = system: velvetleaf (Abutilon theophrasti); assay: Test G Post-Emergence Protocol; conditions: Abutilon theophrasti, post-emergence, 312 h
How it was run: as §2

Q: Which results are given for CCc1nnc(NC(=O)[C@@H]2C(=O)N(C)C[C@H]2c2ccc(C(F)(F)F)cc2)s1 (racemic) [Compound 1558]?
A: pest or weed control at 15.625 g/ha ([1]; 15.625 g ai/ha, read-out: Barnyard grass damage rating (100=total damage to plant; 0=no damage to plant)): 0%; pest or weed control at 62.5 g/ha ([1]; 62.5 g ai/ha, 100=total damage to plant, 0=no damage to plant, read-out: plant damage rating, Barnyardgrass): 0%; pest or weed control at 250 g/ha ([1]; 250 g ai/ha, read-out: Barnyardgrass damage rating (100=total damage to plant; 0=no damage to plant)): 10%; plant injury at 15.625 g/ha ([2]; 15.625 g ai/ha, read-out: Corn damage rating (100=total damage to plant; 0=no damage to plant)): 0%; plant injury at 62.5 g/ha ([2]; 62.5 g ai/ha, 100=total damage to plant, 0=no damage to plant, read-out: plant damage rating, Corn): 0%; plant injury at 250 g/ha ([2]; 250 g ai/ha, read-out: Corn damage rating (100=total damage to plant; 0=no damage to plant)): 0%; pest or weed control at 15.625 g/ha ([3]; 15.625 g ai/ha, read-out: Foxtail, Giant damage rating (100=total damage to plant; 0=no damage to plant)): 0%; pest or weed control at 62.5 g/ha ([3]; 62.5 g ai/ha, 100=total damage to plant, 0=no damage to plant, read-out: plant damage rating, Foxtail, Giant): 0%; pest or weed control at 250 g/ha ([3]; 250 g ai/ha, read-out: Foxtail, Giant damage rating (100=total damage to plant; 0=no damage to plant)): 0%; pest or weed control at 15.625 g/ha ([4]; 15.625 g ai/ha, read-out: Morning-glory, Ivy-leaved damage rating (100=total damage to plant; 0=no damage to plant)): 0%; pest or weed control at 62.5 g/ha ([4]; 62.5 g ai/ha, 100=total damage to plant, 0=no damage to plant, read-out: plant damage rating, Morningglory, Ivy-leaved): 0%; pest or weed control at 250 g/ha ([4]; 250 g ai/ha, read-out: Morningglory, Ivy-leaved damage rating (100=total damage to plant; 0=no damage to plant)): 0%; pest or weed control at 15.625 g/ha ([5]; 15.625 g ai/ha, read-out: Pigweed, Redroot damage rating (100=total damage to plant; 0=no damage to plant)): 0%; pest or weed control at 62.5 g/ha ([5]; 62.5 g ai/ha, 100=total damage to plant, 0=no damage to plant, read-out: plant damage rating, Pigweed, Redroot): 0%; pest or weed control at 250 g/ha ([5]; 250 g ai/ha, read-out: Pigweed, Redroot damage rating (100=total damage to plant; 0=no damage to plant)): 10%; pest or weed control at 15.625 g/ha ([6]; 15.625 g ai/ha, read-out: Velvetleaf damage rating (100=total damage to plant; 0=no damage to plant)): 0%; pest or weed control at 62.5 g/ha ([6]; 62.5 g ai/ha, 100=total damage to plant, 0=no damage to plant, read-out: plant damage rating, Velvetleaf): 0%; pest or weed control at 250 g/ha ([6]; 250 g ai/ha, read-out: Velvetleaf damage rating (100=total damage to plant; 0=no damage to plant)): 0%; pest or weed control at 15.625 g/ha ([7]; 15.625 g ai/ha, evaluated after 13 days (100=total damage to plant; 0=no damage to plant), read-out: Barnyardgrass damage rating): 0%; pest or weed control at 62.5 g/ha ([7]; 62.5 g ai/ha, evaluated after 13 days, read-out: Barnyardgrass damage rating (100=total damage to plant; 0=no damage to plant)): 10%; pest or weed control at 250 g/ha ([7]; 250 g ai/ha, evaluated after 13 days, read-out: damage to plant, Barnyardgrass (100=total damage to plant; 0=no damage to plant)): 20%; plant injury at 15.625 g/ha ([8]; 15.625 g ai/ha, evaluated after 13 days (100=total damage to plant; 0=no damage to plant), read-out: Corn damage rating): 0%; plant injury at 62.5 g/ha ([8]; 62.5 g ai/ha, evaluated after 13 days, read-out: Corn damage rating (100=total damage to plant; 0=no damage to plant)): 0%; plant injury at 250 g/ha ([8]; 250 g ai/ha, evaluated after 13 days, read-out: damage to plant, Corn (100=total damage to plant; 0=no damage to plant)): 0%; pest or weed control at 15.625 g/ha ([9]; 15.625 g ai/ha, evaluated after 13 days (100=total damage to plant; 0=no damage to plant), read-out: Foxtail, Giant damage rating): 0%; pest or weed control at 62.5 g/ha ([9]; 62.5 g ai/ha, evaluated after 13 days, read-out: Foxtail, Giant damage rating (100=total damage to plant; 0=no damage to plant)): 0%; pest or weed control at 250 g/ha ([9]; 250 g ai/ha, evaluated after 13 days, read-out: damage to plant, Foxtail, Giant (100=total damage to plant; 0=no damage to plant)): 0%; pest or weed control at 15.625 g/ha ([10]; 15.625 g ai/ha, evaluated after 13 days (100=total damage to plant; 0=no damage to plant), read-out: Morningglory, Ivy-leaved damage rating): 0%; pest or weed control at 62.5 g/ha ([10]; 62.5 g ai/ha, evaluated after 13 days, read-out: Morningglory, Ivy-leaved damage rating (100=total damage to plant; 0=no damage to plant)): 0%; pest or weed control at 250 g/ha ([10]; 250 g ai/ha, evaluated after 13 days, read-out: damage to plant, Morningglory, Ivy-leaved (100=total damage to plant; 0=no damage to plant)): 0%; pest or weed control at 15.625 g/ha ([11]; 15.625 g ai/ha, evaluated after 13 days (100=total damage to plant; 0=no damage to plant), read-out: Pigweed, Redroot damage rating): 0%; pest or weed control at 62.5 g/ha ([11]; 62.5 g ai/ha, evaluated after 13 days, read-out: Pigweed, Redroot damage rating (100=total damage to plant; 0=no damage to plant)): 0%; pest or weed control at 250 g/ha ([11]; 250 g ai/ha, evaluated after 13 days, read-out: damage to plant, Pigweed, Redroot (100=total damage to plant; 0=no damage to plant)): 0%; pest or weed control at 15.625 g/ha ([12]; 15.625 g ai/ha, evaluated after 13 days (100=total damage to plant; 0=no damage to plant), read-out: Velvetleaf damage rating): 0%; pest or weed control at 62.5 g/ha ([12]; 62.5 g ai/ha, evaluated after 13 days, read-out: Velvetleaf damage rating (100=total damage to plant; 0=no damage to plant)): 0%; pest or weed control at 250 g/ha ([12]; 250 g ai/ha, evaluated after 13 days, read-out: damage to plant, Velvetleaf (100=total damage to plant; 0=no damage to plant)): 0%
